The record followed here is patent US8269017B2, “Compounds for the treatment of proliferative disorders” (Synta Pharmaceuticals Corporation, priority 2005, dated 2012).

Counter-ions that a name gives are not always drawn. Like-named read-outs stand apart in the source and are kept apart here.

Experiment [1] relates to microtubules of CV-1 cells. The experiment is described as follows: Microtubule disruption in CV-1 cells resistant to colchicine and vincristine. The format is cell-based, Africa green monkey. Particulars: 500 nM. The text has this:
The effects of compounds of the invention on microtubules were studied in CV-1 cells. The microtubules of CV-1 cells are known to be resistant to the depolymerizing effects of colchicine and vincristine. […] Cells were then fixed and stained to examine microtubule structure.

Experiment [2] has as its system MES-SA/DX5 (uterine sarcoma, MDR-1). Kind of experiment: cells. The experiment is classed as cell-based. As to conditions: MES/DX5 (MDR-1), MTS assay. The procedure: (§1) The in vitro cytotoxicity of the compounds of the invention was determined in the following human cell lines: HL-60 (T-cell leukemia), MDA-435 and MCF-7 (human breast carcinoma), NCI-H460 and H29 (colon carcinoma), DU145 (prostate carcinoma), and MES-SA and MES-SA/DX5 (uterine sarcoma). MES-SA is a model of uterine sarcoma, and the cell are sensitive to a number of chemotherapeutic agents including doxorubicin, dactinomycin, mitomycin C, taxol and bleomycin, but resistant to vinblastine and cisplatin. MES-SA/Dx5 was established in the presence of increasing concentrations of doxorubicin. […] All cells were purchased from ATCC.
(§2) The cell lines were maintained in RPMI1640 (GIBCO) supplemented with 10% FCS, 100 units/mL penicillin, 100 ug/ml streptomycin, and 2 mM L-glutamine. Cells were split every third day and diluted to a concentration of 2×10^5 cells/mL one day before the experiment was performed. All experiments were performed on exponentially growing cell cultures. Cell densities were 2.5×10^4 cells/mL in all experiments.
(§3) Compounds of the invention were prepared by dissolving the compound at a concentration of 10 mM in 100% DMSO. Final concentrations 10, 1, 0.1, 0.01 and 0.001 μM were obtained by diluting the stock solution directly into the tissue culture medium.

The subject of experiment [3] is HL-60 (T-cell leukemia). Kind of experiment: In vitro cytotoxicity, MTS assay, HL-60. The format is cell-based, human. As to the method:
as §1, §2, §3
(In general: Tetrazolium dyes change colour on reduction, which living cells bring about.)

Experiment [4] concerns MES-SA (uterine sarcoma). Kind of experiment: In vitro cytotoxicity, MTS assay, MES-SA. The format is cell-based, human. Particulars: MES-SA (Uterine Carcinoma). As to the method: as §1, §2, §3
For experiment [5], the system named is SB cells. The experiment is described as follows: Induction of apoptosis in SB cells (Annexin V/PI, FACS). The format is cell-based. As to conditions: 24 h; for % Apoptotic Cells Gated: 1 μM; for cytotoxicity at 1 µM: read-out: % Dead Cells Gated; for viability at 1 µM: read-out: % Live Cells Gated. The procedure:
SB cells (2×10^5 cells/mL) were cultured in 12-well plates (2 mL/well) and were left untreated (negative control), treated with Taxol (positive control), or treated with a compound of the invention for 24 h at 37° C. After treatment, the cells were washed one time with 1×PBS and stained with FITC labeled anti-Annexin V and PI (10 μg/ml) for 15 min at room temperature. The cells were analyzed by FACSCalibur (Becton Dickinson).

Experiment [6] has as its system MDA-435. Kind of experiment: Cytotoxicity in MDA-435 tumor cells (Cell Counting Kit 8). As to conditions: Homo sapiens, MDA435, MDA-435 cells, 70 h. The format is cell-based. As to the method: Tumor cell line, MDA-435, was seeded in 96-well plates at 1×10^4 cells/well in DMEM medium and treated with compounds at different concentrations. Taxol was used as a positive control. The cells were incubated at 37° C. for 70 h. Viability of the cells was measured with Cell Counting Kit 8 (Dojindo, Cat #CK04). IC50 of the compounds was determined by Five-Parameter Logistic equation.

The test system of experiment [7] is MDA-435 cells. The experiment is described as follows: Cell cycle analysis in MDA-435 cells. The format is cell-based, human. As to conditions: 20 h, Taxol 30 nM, Comp. 1 100 nM, Comp. 2 500 nM, Comp. 3 10 nM, Comp. 6 800 mM (so in the source), Comp. 46 50 nM. As to the method: MDA-435 cells were cultured in 6-well plates at 1×10^6 cells/well and were untreated (negative control), treated with Taxol (positive control), or treated with a compound of the invention at 37° C. for 20 h. The cells were detached with 1× trypsin and washed one time with PBS. Cycle TEST PLUS kit (BD PharMingen, Cat #340242) was used to stain the cells. Cell cycle was analyzed with FACScomp program (BS PharMingen).

[8] abbreviates: Homo sapiens, HL-60, HL60 (Leukemia), 72 hours, read-out: IC50.
The mark [9] stands for this setting: Homo sapiens, 72 hours, read-out: IC50.
Setting [10] is: Homo sapiens, HL-60, 72 h, HL60 (Leukemia).

Turning to `CC[C@]1(O)C[C@H]2CN(CCc3c([nH]c4ccccc34)[C@@](C(=O)OC)(c3cc4c(cc3OC)N(C=O)[C@H]3[C@@](O)(C(=O)OC)[C@H](OC(C)=O)[C@]5(CC)C=CCN6CC[C@]43[C@@H]65)C2)C1` [vincristine, Vincristine], the microtubule structure entry in experiment [1] (24 hr) is “disorganized but clear microtubule structures were found”; in experiment [1] (48 hr) it was “microtubule structures were still found”.

In the case of `COc1ccc(-c2cnoc2-c2cc(OC)c(OC)c(OC)c2)cc1NC(=O)C(N)CCSC` (stereo not drawn) [Compound 172, 2-amino-N-(2-methoxy-5-(5-(3,4,5-trimethoxyphenyl)isoxazol-4-yl)phenyl)-4-(methylthio)butanamide Hydrochloride], the IC50 is 0.1 nM in experiment [2] (Homo sapiens, MDR1, 72 h); 5 nM in experiment [3] (setting [8]); 0.1 nM in experiment [4] (setting [9]).

In the case of `COc1cc(-c2oncc2-c2ccc(C(C)C)cc2)cc(OC)c1OC` [Compound 45, 4-(4-Isopropyl-phenyl)-5-(3,4,5-trimethoxy-phenyl)-isoxazole], in experiment [5], the “% Apoptotic Cells Gated” value is 17.74%, the cytotoxicity at 1 µM stood at 15.4% and the viability at 1 µM stood at 62%. In experiment [6], this compound returned a half-maximal inhibitory concentration (IC50) of 219 nM.

In the case of `COc1ccc(-c2cnoc2-c2cc(OC)c(OC)c(OC)c2)cc1NC(=O)C(C)N` (stereo not drawn) [Compound 204, 2-amino-N-(2-methoxy-5-(5-(3,4,5-trimethoxyphenyl)isoxazol-4-yl)phenyl)propanamide Hydrochloride], the 50% inhibitory concentration (IC50) is 120 nM in experiment [2] (72 hours, Hydrochloride); 500 nM in experiment [3] (HL60 (Leukemia), 72 hours, Hydrochloride); 106 nM in experiment [4] (72 hours, Hydrochloride).

`COc1ccc(-c2cnoc2-c2cc(OC)c(OC)c(OC)c2)cc1NC(=O)C(C)N` (stereo not drawn) [Compound 171, 2-amino-N-(2-methoxy-5-[5-(3,4,5-trimethoxy-phenyl)-isoxazol-4-yl)-phenyl)propanamide]: the IC50 came out at 4 nM in experiment [2] (72 hours); 5 nM in experiment [3] (HL60 (Leukemia), 72 hours); 2 nM in experiment [4] (72 hours).

Turning to `CCc1ccc(-c2cnoc2-c2cc(OC)c(OC)c(OC)c2)cc1` [Compound 47, 4-(4-Ethyl-phenyl)-5-(3,4,5-trimethoxy-phenyl)-isoxazole], in experiment [5], the “% Apoptotic Cells Gated” value was 13.83%, the cytotoxicity at 1 µM came to 14.8% and the viability at 1 µM stood at 61.9%. This compound also registered a 50% inhibitory concentration (IC50) in experiment [6] of 47 nM.

With `CCc1cc(-c2oncc2-c2ccc(OC)cc2)c(O)cc1OC` [Compound 44, 4-(4-Methoxy-phenyl)-5-(2-hydroxy-4-methoxy-5-ethyl-phenyl)-isoxazole], in experiment [5], the “% Apoptotic Cells Gated” value is 16.05%, the cytotoxicity at 1 µM is 12.3% and the viability at 1 µM came to 64.8%. Also, the IC50 in experiment [6] is 200 nM.

Consider `CCc1cc(-c2oncc2-c2ccc(C)c(C)c2)c(O)cc1OC` [Compound 162, 4-(3,4-Dimethy-phenyl)-5-(2-hydroxy-4-methoxy-5-ethyl-phenyl)-isoxazole], for which, in experiment [5], the “% Apoptotic Cells Gated” value is recorded as 17.74%, the cytotoxicity at 1 µM worked out at 11.5% and the viability at 1 µM is 64.6%. For the same compound, the IC50 in experiment [6] is 842 nM.

As for `COc1cc2c(c(OC)c1OC)-c1ccc(OC)c(=O)cc1[C@@H](NC(C)=O)CC2` [colchicine], the microtubule structure entry in experiment [1] (24 hr) was “disorganized but clear microtubule structures were found”; in experiment [1] (48 hr) it was “microtubule structures were still found”.

With `COc1cc(-c2cnoc2-c2ccc(Br)cc2)cc(OC)c1OC` [Compound 168, 4-(3,4,5-Trimethoxy-phenyl)-5-(4-bromo-phenyl)-isoxazole], in experiment [5], the “% Apoptotic Cells Gated” value was 15.49%, the cytotoxicity at 1 µM amounted to 14.4% and the viability at 1 µM is 60.4%. In experiment [6], this compound came in with a concentration for half-maximal inhibition (IC50) of over 1000 nM.

In the case of `COc1ccc(-c2oncc2-c2ccc3c(c2)OCCO3)cc1OC` [Compound 161, 4-(2,3-Dihydro-benzo[1,4]dioxin-6-yl)-5-(3,4-dimethoxy-phenyl)isoxazole], in experiment [5], the “% Apoptotic Cells Gated” value was found to be 14.61%, the cytotoxicity at 1 µM is 10.5% and the viability at 1 µM came out at 66.8%. For the same compound, 591 nM corresponded to half-maximal inhibition in experiment [6] (IC50).

On to `CCC(N)C(=O)Nc1cc(-c2cnoc2-c2cc(OC)c(OC)c(OC)c2)ccc1OC` (stereo not drawn) [Compound 173, 2-amino-N-(2-methoxy-5-(5-(3,4,5-trimethoxyphenyl)isoxazol-4-yl)phenyl)butanamide Hydrochloride], for which the half-inhibitory concentration (IC50) in experiment [2] (Homo sapiens, MDR1, 72 h) amounted to 0.1 nM; in experiment [3] (setting [8]) it was 2 nM; in experiment [4] (setting [9]), 0.1 nM.

`COc1ccc(-c2cnoc2-c2cc(OC)c(OC)c(OC)c2)cc1NC(=O)C(N)CC(C)C` (stereo not drawn) [Compound 175, 2-amino-N-(2-methoxy-5-(5-(3,4,5-trimethoxyphenyl)isoxazol-4-yl)phenyl)-4-methylpentanamide Hydrochloride]: the IC50 worked out at 0.1 nM in experiment [2] (Homo sapiens, MDR1, 72 h); 5 nM in experiment [3] (setting [8]); 0.1 nM in experiment [4] (setting [9]).

Consider `CCc1cc(-c2oncc2-c2ccc3ccccc3c2)c(O)cc1OC` [Compound 2, 4-(Naphthalen-2-yl)-5-(2-hydroxy-4-methoxy-5-ethyl-phenyl)-isoxazole], for which, in experiment [5], the “% Apoptotic Cells Gated” value came to 22.73%, the cytotoxicity at 1 µM amounted to 22.7% and the viability at 1 µM came out at 45.7%. In experiment [7], the “Apoptotic Population (%)” value turned out to be 11.17%, the “G0/G1 Phase (%)” value worked out at 21.25%, the “G2/M Phase (%)” value worked out at 30.53% and the “S Phase (%)” value is 37.67%. Further, it took 79 nM to reach half-maximal inhibition in experiment [6] (IC50).

Regarding `COc1ccc(-c2cnoc2-c2cc(OC)c(OC)c(OC)c2)cc1NC(=O)C(N)CO` (stereo not drawn) [Compound 170, 2-amino-3-hydroxy-N-(2-methoxy-5-[5-(3,4,5-trimethoxy-phenyl)-isoxazol-4-yl)-phenyl)propanamide hydrochloride], the IC50 amounted to 3 nM in experiment [2] (Homo sapiens, MDR1, 72 h); 2 nM in experiment [3] (setting [8]); 9 nM in experiment [4] (setting [9]).

Take `COc1ccc(-c2cnoc2-c2cc(OC)c(OC)c(OC)c2)cc1OP(=O)(O)O` [Compound 177, 2-methoxy-5-[5-(3,4,5-trimethoxy-phenyl)-isoxazol-4-yl)-phenyl dihydrogen phosphate]: the 50% inhibitory concentration (IC50) came out at 4 nM in experiment [2] (Homo sapiens, MDR1, 72 h); 52 nM in experiment [3] (HL60 (Leukemia), 72 hours); 8 nM in experiment [4] (Homo sapiens, MES-SA, 72 h).

`COc1ccc(-c2cnoc2-c2cc(OC)c(OC)c(OC)c2)cc1NC(=O)CCN` [Compound 243, 3-amino-N-(2-methoxy-5-(5-(3,4,5-trimethoxyphenyl)isoxazol-4-yl)phenyl)propanamide Hydrochloride]: the IC50 in experiment [2] (Homo sapiens, MDR1, 72 h) is 38 nM; in experiment [3] (setting [10]), 63 nM; in experiment [4] (Homo sapiens, MES-SA, 72 h), 50 nM.

Take `COC(=O)CNCC(=O)Nc1cc(-c2cnoc2-c2cc(OC)c(OC)c(OC)c2)ccc1OC` [Compound 241, methyl 2-(2-(2-methoxy-5-(5-(3,4,5-trimethoxyphenyl)isoxazol-4-yl)phenylamino)-2-oxoethylamino)acetate]: the half-inhibitory concentration (IC50) in experiment [2] (Homo sapiens, MDR1, 72 h) was 63 nM; in experiment [3] (setting [8]), 600 nM; in experiment [4] (setting [9]) it was 136 nM.

With `COc1ccc(CC(N)C(=O)Nc2cc(-c3cnoc3-c3cc(OC)c(OC)c(OC)c3)ccc2OC)cc1` (stereo not drawn) [Compound 176, 2-amino-N-(2-methoxy-5-(5-(3,4,5-trimethoxyphenyl)isoxazol-4-yl)phenyl)-3-(4-methoxyphenyl)propanamide], the concentration for half-maximal inhibition (IC50) in experiment [2] (Homo sapiens, MDR1, 72 h) came out at 0.1 nM; in experiment [3] (setting [10]), 64 nM; in experiment [4] (Homo sapiens, MES-SA, 72 h), 0.1 nM.

Usually IC50 stands for the concentration that inhibits the measured activity by half.
